Structures can show the parent of a compound that is named as a salt.

A short description of data set [1]: Arterio-Venous shunt model. It counts as in vivo, rats. Particulars: continuous intravenous infusion; for thrombus weight: both compounds to the same extent. The procedure: […]. Blood circulated through the shunt for 15 minutes before the thread is carefully removed and weighed. The weight of a wet thread is subtracted from the total weight of the thread and thrombus (see J.R. Smith, Br. J. Pharmacol., 77,29 (1982)).

A short description of data set [2]: Coagulation parameters in plasma of treated rats (TT, APTT, prothrombin time). It counts as in vivo, rat. The settings on record: for plasma thrombin time prolonged: during infusion reducing thrombus weight to approximately 20% of control in the Arterio-Venous shunt model.
Procedure: Plasma thrombin time (TT) and activated partial thromboplastin time (APTT) are measured with a fibrometer. Blood is sampled from a jugular catheter and collected in syringe containing sodium citrate (3.8%, 1 part to 9 parts blood). To measure TT, rat plasma (0.1 mL) is mixed with saline (0.1 mL) and bovine thrombin (0.1 mL, 30 U/mL in TRIS buffer; Parke Davis) at 37 °C. For APTT, plasma (0.1 mL) and APTT solution (0.1 mL, Organon Teknika) are incubated for 5 minutes (37 °C) and CaCl2 (0.01 mL, 0.025 M) is added to start coagulation. Assays are done in duplicate and averaged.
A further data set has as its target Human Thrombin (Homo sapiens, UniProt P00734). As to the kind of experiment: biochemical. Particulars: read-out: Kass Human Thrombin (converted).
The next data set has as its target factor Xa (Homo sapiens, UniProt P00742). Kind of data set: biochemical. Particulars: read-out: Kass Xa (converted). In a few lines: (§1)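 Bovine trypsin and human factor Xa amidase activity measured chromogenically, following the human thrombin procedure. Substrates: N-Benzoyl-Ile-Glu-Gly-Arg-p-nitroanilide for factor Xa and N-Benzoyl-Phe-Val-Arg-p-nitroanilide for trypsin. Used for selectivity profiling.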

For another data set, the target named is T1, Trypsin (Bos taurus, UniProt P00760).
T1 sequence (P00760 24-246): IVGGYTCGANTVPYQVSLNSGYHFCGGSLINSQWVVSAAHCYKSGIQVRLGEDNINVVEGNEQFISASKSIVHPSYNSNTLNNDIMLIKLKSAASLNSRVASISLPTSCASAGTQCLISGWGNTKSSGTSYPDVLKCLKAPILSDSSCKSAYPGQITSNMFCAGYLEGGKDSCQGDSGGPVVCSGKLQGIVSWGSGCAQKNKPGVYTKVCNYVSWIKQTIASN
Kind of data set: biochemical. Particulars: read-out: Kass Trypsin (converted). Also on record: species or system Bovine. Summed up:
as §1

Data set [3] has as its system human or animal plasma. Kind of data set: Anticoagulation determination in plasma: thrombin time (TT). Type of data set: biochemical. Particulars: concentration doubling thrombin time. Summed up: (§2)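 Compounds spiked over a concentration range into citrated human, dog or rat plasma. PT used Thromboplastin-C; APTT used Actin reagent 120 s then 0.02 M CaCl2; TT used bovine thrombin 10 NIH units/mL. Concentration doubling clotting time estimated by linear extrapolation.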

A further data set concerns the target T2, Plasmin (Homo sapiens, UniProt P00747).
T2 construct: Human plasmin is purchased; purchased Boehringer Mannheim, Indianapolis, Indiana
Kind of data set: biochemical. The settings on record: read-out: Kass Plasmin (converted). Summed up:
(§3)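 Amidase activity of human plasmin and t-PA (nt-PA single-chain; mt-PA6) was measured by a chromogenic method adapted from a thrombin assay. Substrates were H-D-Val-Leu-Lys-p-nitroanilide for plasmin and H-D-Ile-Pro-Arg-p-nitroanilide for t-PA.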

The next data set deals with t-PA (Homo sapiens, UniProt P00750). Kind of data set: biochemical. The settings on record: read-out: Kass t-PA (converted). In a few lines:
as §3

Another data set in a line: in vivo. Also on record: species or system rats. The settings on record: for bioavailability: plasma, rat, oral vs i.v.; for % oral/i.v. activity (Rat): screening not completed, activity after p.o. dose given in the legend. The text has this: Each sample population represented alternating sequential time points.
The test system of data set [4] is human or animal plasma. Kind of data set: Anticoagulation determination in plasma: activated partial thromboplastin time (APTT). Type of data set: biochemical. Particulars: concentration doubling activated partial thromboplastin time. Summed up: as §2
The test system of data set [5] is human or animal plasma. Kind of data set: Anticoagulation determination in plasma: prothrombin time (PT). Type of data set: biochemical. The settings on record: concentration doubling prothrombin time. In a few lines: as §2
Setting [6] is: during infusion in the Arterio-Venous shunt model.
For % oral/i.v. activity (Rat) in this document: key: NC^1 indicates screening not completed; low or very low activity obsrved at 20 mg/kg p.o; NC^2 indicates screening not completed; low or very low activity observed at 60 mg/kg p.o; NC^3 indicates screening not completed; low or very low activity observed at 50 mg/kg p.o.

factor Xa, sequence (P00742 235-488 limits assumed): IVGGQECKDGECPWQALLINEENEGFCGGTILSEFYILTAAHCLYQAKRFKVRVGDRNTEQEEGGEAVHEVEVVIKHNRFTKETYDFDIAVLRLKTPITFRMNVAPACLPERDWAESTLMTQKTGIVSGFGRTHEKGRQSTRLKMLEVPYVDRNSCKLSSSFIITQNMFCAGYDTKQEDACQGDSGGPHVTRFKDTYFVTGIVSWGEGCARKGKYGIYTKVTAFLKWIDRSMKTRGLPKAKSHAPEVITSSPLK
factor Xa, sequence (P00742 41-179 partner limits assumed): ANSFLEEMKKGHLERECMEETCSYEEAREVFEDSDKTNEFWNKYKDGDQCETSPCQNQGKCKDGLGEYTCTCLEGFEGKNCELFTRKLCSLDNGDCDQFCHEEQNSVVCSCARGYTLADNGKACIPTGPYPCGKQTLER
T2 sequence (P00747 581-810 limits assumed): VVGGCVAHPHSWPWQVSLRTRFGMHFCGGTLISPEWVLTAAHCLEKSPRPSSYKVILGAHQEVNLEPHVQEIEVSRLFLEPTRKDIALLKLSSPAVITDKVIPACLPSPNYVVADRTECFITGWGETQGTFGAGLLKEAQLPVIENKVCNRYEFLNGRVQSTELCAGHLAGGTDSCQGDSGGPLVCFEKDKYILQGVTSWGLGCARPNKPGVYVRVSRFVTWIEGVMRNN
T2 sequence (P00747 97-580 partner limits assumed): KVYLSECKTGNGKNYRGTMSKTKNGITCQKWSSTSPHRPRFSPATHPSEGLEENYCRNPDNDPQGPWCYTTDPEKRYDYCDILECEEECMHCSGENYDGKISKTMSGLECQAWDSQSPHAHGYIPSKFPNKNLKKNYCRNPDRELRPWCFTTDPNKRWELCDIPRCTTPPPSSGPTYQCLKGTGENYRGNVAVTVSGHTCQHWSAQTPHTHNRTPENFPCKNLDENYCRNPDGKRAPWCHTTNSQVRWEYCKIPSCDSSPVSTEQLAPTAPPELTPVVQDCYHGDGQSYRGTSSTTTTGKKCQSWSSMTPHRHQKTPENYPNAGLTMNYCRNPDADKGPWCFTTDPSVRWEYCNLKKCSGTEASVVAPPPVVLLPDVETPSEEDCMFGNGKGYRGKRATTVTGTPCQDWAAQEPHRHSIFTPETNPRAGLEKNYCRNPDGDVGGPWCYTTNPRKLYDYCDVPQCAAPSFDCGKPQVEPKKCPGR
t-PA, sequence (P00750 36-562): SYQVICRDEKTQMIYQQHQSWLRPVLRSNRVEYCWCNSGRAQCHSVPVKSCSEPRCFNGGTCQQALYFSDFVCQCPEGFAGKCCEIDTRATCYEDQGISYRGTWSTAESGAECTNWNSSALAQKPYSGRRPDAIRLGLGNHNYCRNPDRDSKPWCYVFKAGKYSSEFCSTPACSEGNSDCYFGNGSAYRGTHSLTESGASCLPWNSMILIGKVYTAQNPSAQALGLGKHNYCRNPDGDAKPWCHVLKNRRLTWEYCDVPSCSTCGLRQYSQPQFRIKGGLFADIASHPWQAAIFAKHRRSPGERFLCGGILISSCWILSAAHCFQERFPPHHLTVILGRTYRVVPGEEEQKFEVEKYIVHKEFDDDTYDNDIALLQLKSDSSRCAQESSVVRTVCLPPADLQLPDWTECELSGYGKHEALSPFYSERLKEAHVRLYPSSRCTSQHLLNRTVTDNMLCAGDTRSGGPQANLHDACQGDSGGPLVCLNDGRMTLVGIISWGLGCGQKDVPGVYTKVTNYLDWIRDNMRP

As for `CN[C@H](Cc1ccccc1)C(=O)N1CCC[C@H]1C(=O)N[C@H](C=O)CCCNC(=N)N` [D-MePhe-Pro-Arg-H, reference compound], the thrombus weight entry in data set [1] is recorded as “approximately 20 % of control”. Besides, in data set [2], the “plasma thrombin time prolonged” value is “greater than 20 fold”.

On to `CCS(=O)(=O)N[C@H](Cc1ccccc1)C(=O)N1CCC[C@H]1C(=O)NCCCCNC(=N)N` [Example 1, EtS02-D-Phe-Pro-Agm·HCl], for which the Kd was 303 nM on Human Thrombin; 588000 nM at factor Xa; 2630 nM at Trypsin; 100000 nM on Plasmin; 12200 nM on t-PA. Further, in the data set on human or animal plasma [3], the “Human Plasma Anticoagulation 2x Clotting time (ng/mL) TT” value came out at 250 ng/mL. In addition, the bioavailability in “in vivo” came to 8%.

Turning to `N=C(N)c1ccc(CNC(=O)[C@@H]2C[C@@H]3CCCC[C@@H]3N2C(=O)[C@H]2CCCCN2)cc1` [Example 20, D-hPro-Ohi-p-NHCH2C6H4C(NH)NH2·3HCl], the Kd on Human Thrombin was 100 nM; at factor Xa, 10000 nM; on Trypsin, 52.6 nM; on Plasmin, 10000 nM; at t-PA, 130000 nM. Further, the “Human Plasma Anticoagulation 2x Clotting time (ng/mL) TT” value with human or animal plasma [3] is reported as 62 ng/mL. Besides, the “Human Plasma Anticoagulation 2x Clotting time (ng/mL) APTT” value with human or animal plasma [4] is 550 ng/mL. In addition, the “Human Plasma Anticoagulation 2x Clotting time (ng/mL) PT” value with human or animal plasma [5] was 600 ng/mL. The bioavailability in the data set “in vivo” worked out at 23%.

With `CCS(=O)(=O)N[C@H](Cc1ccccc1)C(=O)N1CCC[C@H]1C(=O)NCCc1ccc(C(=N)N)cc1` [Example 26, EtSO2-D-Phe-Pro-p-NHCH2CH2-C6H4C(=NH)NH2·HCl], the Kd at Human Thrombin is 76.9 nM; at factor Xa, 100000 nM; on Trypsin, 4760 nM; at Plasmin, 100000 nM; at t-PA, 100000 nM. The “Human Plasma Anticoagulation 2x Clotting time (ng/mL) TT” value with human or animal plasma [3] came out at 37 ng/mL. Moreover, the “Human Plasma Anticoagulation 2x Clotting time (ng/mL) APTT” value in the data set on human or animal plasma [4] stood at 870 ng/mL. Moreover, in the data set with human or animal plasma [5], the “Human Plasma Anticoagulation 2x Clotting time (ng/mL) PT” value is listed as 750 ng/mL. In addition, the “% oral/i.v. activity (Rat)” value in “in vivo” is given as “NC^1”.

As to `N=C(N)c1ccc(CNC(=O)[C@@H]2C[C@@H]3CCCC[C@@H]3N2C(=O)[C@@H]2NCC[C@@H]3CCCC[C@@H]32)cc1` [Example 42, D-1-Piq-cis-Ohi-p-NHCH2C6H4C(NH)NH2·2HCl], the Kd at Human Thrombin is 26.3 nM; on factor Xa, 14300 nM; on Trypsin, 23.3 nM; on Plasmin, 8330 nM; at t-PA, 100000 nM. In addition, the “Human Plasma Anticoagulation 2x Clotting time (ng/mL) TT” value with human or animal plasma [3] worked out at 20 ng/mL. In addition, the “Human Plasma Anticoagulation 2x Clotting time (ng/mL) APTT” value with human or animal plasma [4] was determined as 270 ng/mL. Further, the “Human Plasma Anticoagulation 2x Clotting time (ng/mL) PT” value in the data set on human or animal plasma [5] is listed as 320 ng/mL. For the same compound, in the data set “in vivo”, the “% oral/i.v. activity (Rat)” value is reported as “NC^2”.

Turning to `CCS(=O)(=O)N[C@H](Cc1ccccc1)C(=O)N1[C@H](C(=O)NCc2ccc(C(=N)N)cc2)C[C@@H]2CCCC[C@@H]21` [Example 45, EtSO2-Phe-cis-Ohi-p-NHCH2C6H4C(NH)NH2·HCl], the Kd is 1.64 nM on Human Thrombin; 667 nM at factor Xa; 9.09 nM on Trypsin; 909 nM on Plasmin; 1300 nM on t-PA. Besides, the “Human Plasma Anticoagulation 2x Clotting time (ng/mL) TT” value in the data set with human or animal plasma [3] is 8 ng/mL. For the same compound, the “Human Plasma Anticoagulation 2x Clotting time (ng/mL) APTT” value in the data set on human or animal plasma [4] amounted to 200 ng/mL. In the data set with human or animal plasma [5], the “Human Plasma Anticoagulation 2x Clotting time (ng/mL) PT” value is recorded as 330 ng/mL. Moreover, the “% oral/i.v. activity (Rat)” value in “in vivo” is recorded as “NC^2”.

With `N=C(N)c1ccc(CNC(=O)[C@@H]2C[C@@H]3CCCC[C@@H]3N2C(=O)[C@@H](Cc2ccccc2)NCC(=O)O)cc1` [Example 47, HOOCCH2-D-Phe-cis-Ohi-p-NHCH2C6H4C(NH)NH2·HCl], the Kd was 22.2 nM on Human Thrombin; 25000 nM on factor Xa; 12.2 nM on Trypsin; 5560 nM on Plasmin; 100000 nM on t-PA. For the same compound, in the data set with human or animal plasma [3], the “Human Plasma Anticoagulation 2x Clotting time (ng/mL) TT” value was determined as 12. ng/mL. The “Human Plasma Anticoagulation 2x Clotting time (ng/mL) APTT” value in the data set on human or animal plasma [4] is listed as 140 ng/mL. In addition, the “Human Plasma Anticoagulation 2x Clotting time (ng/mL) PT” value with human or animal plasma [5] is listed as 270 ng/mL. Also, the “% oral/i.v. activity (Rat)” value in the data set “in vivo” is “NC^2”.

`N=C(N)c1ccc(CNC(=O)[C@@H]2CCCN2C(=O)[C@@H](CC2CCCCC2)NCC(=O)O)cc1` [Example 48, HOOCCH2-D-Cha-Pro-p-NHCH2C6H4C(NH)NH2·HCl]: in data set [1], the thrombus weight entry was “approximately 20 % of control”. Besides, in data set [1] (greater than D-MePhe-Pro-Arg-H), the “antithrombotic potency compared with D-MePhe-Pro-Arg-H” value turned out to be 9 fold. Also, the Kd was 0.244 nM on Human Thrombin; 182 nM on factor Xa; 4 nM at Trypsin; 2330 nM at Plasmin; 20000 nM on t-PA. Also, in the data set on human or animal plasma [3], the “Human Plasma Anticoagulation 2x Clotting time (ng/mL) TT” value turned out to be 2. ng/mL. Further, the APTT extended result in [2] (setting [6]) is “about 120 % of control”. The Prothrombin time extended result in data set [2] (setting [6]) is recorded as “about 120 % of control”. In data set [2], the “plasma thrombin time prolonged” value is on record as “about 3 fold”. The “Human Plasma Anticoagulation 2x Clotting time (ng/mL) APTT” value in the data set on human or animal plasma [4] is on record as 33 ng/mL. In addition, in the data set on human or animal plasma [5], the “Human Plasma Anticoagulation 2x Clotting time (ng/mL) PT” value amounted to 59 ng/mL.

Regarding `N=C(N)c1ccc(CNC(=O)[C@@H]2C[C@@H]3CCCC[C@@H]3N2C(=O)[C@@H](CC2CCCCC2)NCC(=O)O)cc1` [Example 49, HOOCCH2-D-Cha-cis-Ohi-p-NHCH2C6H4C(NH)NH2·HCl], the Kd on Human Thrombin is 2.5 nM; at factor Xa it was 294 nM; on Trypsin it was 1.06 nM; at Plasmin, 1190 nM; on t-PA it was 25000 nM. Moreover, the “Human Plasma Anticoagulation 2x Clotting time (ng/mL) TT” value in the data set with human or animal plasma [3] came out at 5 ng/mL. Besides, the “Human Plasma Anticoagulation 2x Clotting time (ng/mL) APTT” value in the data set on human or animal plasma [4] is recorded as 130 ng/mL. Moreover, the “Human Plasma Anticoagulation 2x Clotting time (ng/mL) PT” value with human or animal plasma [5] is listed as 130 ng/mL. In the data set “in vivo”, the “% oral/i.v. activity (Rat)” value is reported as “NC^2”.

On to `Nc1ccc(CNC(=O)[C@@H]2CCCN2C(=O)[C@@H](CC2CCCCC2)NCC(=O)O)c(F)c1` [Example 64, HO2CCH2-D-Cha-Pro-4-NHCH2-3-F-C6H3NH2·HCl], for which the Kd at Human Thrombin was 66.7 nM; on factor Xa it was 100000 nM. Moreover, the “Human Plasma Anticoagulation 2x Clotting time (ng/mL) TT” value in the data set with human or animal plasma [3] is reported as 23 ng/mL. Besides, in the data set with human or animal plasma [4], the “Human Plasma Anticoagulation 2x Clotting time (ng/mL) APTT” value is listed as 900 ng/mL. The “Human Plasma Anticoagulation 2x Clotting time (ng/mL) PT” value in the data set on human or animal plasma [5] is on record as 650 ng/mL. Besides, the “% oral/i.v. activity (Rat)” value in “in vivo” is recorded as “NC^3”.

With `N=C(N)c1ccc(CNC(=O)[C@@H]2CCCN2C(=O)[C@@H](CC2CCCCC2)NCC(=O)O)c(F)c1` [Example 71, HO2CCH2-D-Cha-Pro-4-NHCH2-3-F-benzamidine·HCl], the Kd is 0.714 nM on Human Thrombin and 4.17 nM on Trypsin. In addition, in the data set on human or animal plasma [3], the “Human Plasma Anticoagulation 2x Clotting time (ng/mL) TT” value came to 1 ng/mL. For the same compound, the “Human Plasma Anticoagulation 2x Clotting time (ng/mL) APTT” value in the data set with human or animal plasma [4] is 89 ng/mL. Moreover, the “Human Plasma Anticoagulation 2x Clotting time (ng/mL) PT” value in the data set with human or animal plasma [5] was found to be 150 ng/mL. Besides, the “% oral/i.v. activity (Rat)” value in “in vivo” is “NC^1”.

Turning to `N=C(N)c1cc(F)c(CNC(=O)[C@@H]2CCCN2C(=O)[C@@H](CC2CCCCC2)NCC(=O)O)c(F)c1` [Example 72, HO2CCH2-D-Cha-Pro-4-NHCH2-3,5-F2-benzamidine·HCl], the Kd was 0.435 nM at Human Thrombin and 3.57 nM at Trypsin. Further, in the data set on human or animal plasma [3], the “Human Plasma Anticoagulation 2x Clotting time (ng/mL) TT” value is 1 ng/mL. Also, in the data set with human or animal plasma [4], the “Human Plasma Anticoagulation 2x Clotting time (ng/mL) APTT” value is on record as 160 ng/mL. Besides, the “Human Plasma Anticoagulation 2x Clotting time (ng/mL) PT” value with human or animal plasma [5] was determined as 160 ng/mL. Further, the “% oral/i.v. activity (Rat)” value in “in vivo” was “NC^1”.

(Values after patent EP0672658B1, “Antithrombotic agents” (priority 1994, dated 1995).)
